Measurements published in US9399637B2, “Substituted heteroaryl compounds and methods of use” (Calitor Sciences, LLC, priority 2014, dated 2016).

What was measured:
[1] = Compound stability in rat liver microsomes; type: in vitro ADME; details: pH 7.4; for half-life at 5 μM: rat liver microsomes 0.5 mg protein/mL, compound 5 μM, NADPH, 37° C., read-out: Rat T1/2; for CLint scaled at 5 μM: rat liver microsomes, in vivo CLint extrapolated
Experimental: (§1) Human or rat liver microsomes incubations were conducted in duplicate in polypropylene tubes. The typical incubation mixtures consisted of human or rat liver microsomes (0.5 mg protein/mL), compounds of interest (5 μM) and NADPH (1.0 mM) in a total volume of 200 μL potassium phosphate buffer (PBS, 100 mM, pH 7.4). Compounds were dissolved in DMSO and diluted with PBS such that the final concentration of DMSO was 0.05%. The enzymatic reactions were commenced with the addition of […] after a 3-min preincubation and incubated in a water bath open to the air at 37° C. Reactions were terminated at various time points (0, 5, 10, 15, 30, 60 min) by adding equal volume of ice-cold acetonitrile. The samples were stored at […] until LC/MS/MS assays.
(§2) The concentrations of compounds in the incubation mixtures of human or rat liver microsomes were determined by a LC/MS/MS method. The ranges of the linearity in the concentration range were determined for each tested compounds.
(§3) A parallel incubation was performed using denatured microsomes as the negative control, and reactions were terminated at various time points (0, 15, 60 min) after incubation at 37° C.
(§4) Dextromethorphan (70 μM) was selected as the positive control, and reactions were terminated at various time points (0, 5, 10, 15, 30, 60 min) after incubation at 37° C. Both positive and negative control samples were included in each assay to ensure the integrity of the microsomal incubation system.
(§5) The concentrations of compounds in human or rat liver microsome incubations were plotted as a percentage of the relevant zero time point control for each reaction. The in vivo CLint were extrapolated (ref.: Naritomi, Y.; Terashita, S.; Kimura, S.; Suzuki, A.; Kagayama, A.; and Sugiyama, Y.; Prediction of human hepatic clearance from in vivo animal experiments and in vitro metabolic studies with liver microsomes from animals and humans. Drug Metab. Dispos., 2001, 29: 1316-1324).

[2] = Compound stability in human liver microsomes; type: in vitro ADME; details: pH 7.4; for half-life at 5 μM: human liver microsomes 0.5 mg protein/mL, compound 5 μM, NADPH, 37° C., read-out: Human T1/2; for CLint scaled at 5 μM: human liver microsomes, in vivo CLint extrapolated
Experimental: as §1, §2, §3, §4, §5

[3] = Pharmacokinetics after intravenous and oral administration in rats; type: in vivo; details: iv dosing, 1 mg/kg; for AUC(0-t) / half-life / Vd: rat, plasma; for Vd: read-out: Vss
Experimental: The LC/MS/MS system used in the analysis consists of an Agilent 1200 Series vacuum degasser, binary pump, well-plate autosampler, thermostatted column compartment, the Agilent G6430 Triple Quadrupole Mass Spectrometer with an electrosprayionization (ESI) source. Quantitative analysis was carried out using MRM mode. The parameters for MRM transitions are in the Table A.
An Agilent XDB-C18, 2.1×30 mm, 3.5 μM column was used for the analysis. 5 μL of the samples were injected. Analysis condition: The mobile phase was 0.1% formic acid in water (A) and 0.1% formic acid in methanol (B). The flow rate was 0.4 mL/min. And the gradient of Mobile phase was in the Table B.
Alternatively, an Agilent 6330 series LC/MS/MS spectrometer equipped with G1312A binary pumps, a G1367A autosampler and a G1314C UV detector were used in the analysis. An ESI source was used on the LC/MS/MS spectrometer. The analysis was done in positive ion mode as appropriate and the MRM transition for each analyte was optimized using standard solution. A Capcell MP-C18 100×4.6 mm I.D., […] column (Phenomenex, Torrance, Calif., USA) was used during the analysis. The mobile phase was 5 mM ammonia acetate, 0.1% MeOH in water (A): 5 mM ammonia acetate, 0.1% MeOH in acetonitrile (B) (70:30, v/v). The flow rate was 0.6 mL/min. Column was maintained at ambient temperature. 20 μL of the samples were injected.
The compounds disclosed herein are assessed in pharmacokinetic studies in mice, rats, dogs or monkeys. The compounds are administered as a water solution, 2% HPMC+1% TWEEN®80 in water solution, 5% DMSO+5% solutol in saline, 4% MC suspension or capsule. For the intravenous administration, the animals are generally given at 1 or 2 mg/kg dose. For the oral (p.o.) dosing, mice and rats are generally given 5 or 10 mg/kg dose, and dogs and monkeys are generally given 10 mg/kg dose. The blood samples (0.3 mL) are drawn at 0.25, 0.5, 1.0, 2.0, 3.0, 4.0, 6.0, 8.0, 12 and 24 h time points or 0.083, 0.25, 0.5, 1.0, 2.0, 4.0, 6.0, 8.0 and 24 h time points and centrifuged at 3,000 or 4000 rpm for 2 to 10 min. The plasma solutions are collected, and stored at −20° C. or −70° C. until analyzed by LC/MS/MS as described above.

JAK1 (h) = biological target: T1, JAK1 (h) (Homo sapiens, UniProt P23458); assay: JAK1 kinase assay; type: biochemical
T1 construct: purchased Millipore UK Ltd (assays run there as a service)
T1 sequence (P23458 whole entry): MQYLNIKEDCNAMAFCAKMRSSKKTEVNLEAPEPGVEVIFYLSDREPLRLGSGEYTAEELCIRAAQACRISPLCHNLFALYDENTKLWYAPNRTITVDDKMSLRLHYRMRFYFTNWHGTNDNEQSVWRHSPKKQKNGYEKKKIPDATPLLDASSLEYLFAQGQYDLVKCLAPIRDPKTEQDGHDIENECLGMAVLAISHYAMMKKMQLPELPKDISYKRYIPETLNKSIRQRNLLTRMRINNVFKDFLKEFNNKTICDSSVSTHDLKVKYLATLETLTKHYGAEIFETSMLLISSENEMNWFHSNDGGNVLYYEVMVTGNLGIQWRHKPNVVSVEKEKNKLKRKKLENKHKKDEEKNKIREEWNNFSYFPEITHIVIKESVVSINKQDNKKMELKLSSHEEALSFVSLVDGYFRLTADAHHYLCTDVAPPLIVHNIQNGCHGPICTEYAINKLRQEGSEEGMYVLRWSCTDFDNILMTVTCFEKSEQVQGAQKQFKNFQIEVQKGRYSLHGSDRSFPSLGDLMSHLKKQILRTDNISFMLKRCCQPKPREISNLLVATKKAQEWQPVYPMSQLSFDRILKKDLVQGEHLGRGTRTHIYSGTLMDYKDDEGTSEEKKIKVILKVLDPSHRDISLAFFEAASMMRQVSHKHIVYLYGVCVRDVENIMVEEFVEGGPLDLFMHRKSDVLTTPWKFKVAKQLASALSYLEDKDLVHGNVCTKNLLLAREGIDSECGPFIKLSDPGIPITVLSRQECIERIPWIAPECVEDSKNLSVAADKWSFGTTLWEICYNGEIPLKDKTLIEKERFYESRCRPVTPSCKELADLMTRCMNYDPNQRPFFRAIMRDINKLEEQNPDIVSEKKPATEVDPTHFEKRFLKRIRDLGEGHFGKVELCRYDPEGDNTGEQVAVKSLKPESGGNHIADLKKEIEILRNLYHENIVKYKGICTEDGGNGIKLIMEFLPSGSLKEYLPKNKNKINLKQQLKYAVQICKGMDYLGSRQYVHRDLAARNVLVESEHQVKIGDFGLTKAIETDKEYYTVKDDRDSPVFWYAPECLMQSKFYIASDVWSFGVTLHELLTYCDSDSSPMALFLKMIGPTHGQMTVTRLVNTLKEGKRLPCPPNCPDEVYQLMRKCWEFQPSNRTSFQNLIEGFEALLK
Experimental: (§6) Kinase assays can be performed by measurement of incorporation of γ-^33P ATP into immobilized myelin basic protein (MBP). High binding white 384 well plates (Greiner) are coated with MBP (Sigma #M-1891) by incubation of 60 μL/well of 20 μg/mL MBP in Tris-buffered saline (TBS; 50 mM Tris pH 8.0, 138 mM NaCl, 2.7 mM KCl) for 24 h at 4° C. Plates are washed 3× with 100 μL TBS. Kinase reactions are carried out in a total volume of 34 μL in kinase buffer (5 mM Hepes pH 7.6, 15 mM NaCl, 0.01% bovine gamma globulin (Sigma #I-5506), 10 mM MgCl2, 1 mM DTT, 0.02% TritonX-100). Compound dilutions are performed in DMSO and added to assay wells to a final DMSO concentration of 1%. Each data point is measured in duplicate, and at least two duplicate assays are performed for each individual compound determination. Enzyme is added to final concentrations of 10 nM or 20 nM, for example. A mixture of unlabeled ATP and γ-^33P ATP is added to start the reaction (2×10^6 cpm of γ-^33P ATP per well (3000 Ci/mmole) and 10 μM unlabeled ATP, typically. The reactions are carried out for 1 h at room temperature with shaking Plates are washed 7× with TBS, followed by the addition of 50 μL/well scintillation fluid (Wallac). Plates are read using a Wallac Trilux counter. This is only one format of such assays; various other formats are possible, as known to one skilled in the art.
(§7) The above assay procedure can be used to determine the IC50 for inhibition and/or the inhibition constant, Ki. The IC50 is defined as the concentration of compound required to reduce the enzyme activity by 50% under the condition of the assay. The IC50 value is estimated by preparing a 10 point curve using a ½ log dilution series (for example, a typical curve may be prepared using the following compound concentrations: 3 μM, 1 μM, 0.3 μM, 0.1 μM, 0.03 μM, 0.01 μM, 0.003 μM, 0.001 μM, 0.0003 μM and 0 μM).
JAK1 (h) is incubated with 20 mM Tris/HCl pH 7.5, 0.2 mM EDTA, 500 μM […], 10 mM MgAcetate and [γ-^33P-ATP] (specific activity approx. 500 cpm/pmol, concentration as required).
(§8) The kinase assays described herein were performed at Millipore UK Ltd, Dundee Technology Park, Dundee DD2 1SW, UK.

JAK2 (h) = biological target: T2, JAK2 (h) (Homo sapiens, UniProt O60674); assay: JAK2 kinase assay; type: biochemical
T2 construct: purchased Millipore UK Ltd (assays run there as a service)
T2 sequence (O60674 whole entry): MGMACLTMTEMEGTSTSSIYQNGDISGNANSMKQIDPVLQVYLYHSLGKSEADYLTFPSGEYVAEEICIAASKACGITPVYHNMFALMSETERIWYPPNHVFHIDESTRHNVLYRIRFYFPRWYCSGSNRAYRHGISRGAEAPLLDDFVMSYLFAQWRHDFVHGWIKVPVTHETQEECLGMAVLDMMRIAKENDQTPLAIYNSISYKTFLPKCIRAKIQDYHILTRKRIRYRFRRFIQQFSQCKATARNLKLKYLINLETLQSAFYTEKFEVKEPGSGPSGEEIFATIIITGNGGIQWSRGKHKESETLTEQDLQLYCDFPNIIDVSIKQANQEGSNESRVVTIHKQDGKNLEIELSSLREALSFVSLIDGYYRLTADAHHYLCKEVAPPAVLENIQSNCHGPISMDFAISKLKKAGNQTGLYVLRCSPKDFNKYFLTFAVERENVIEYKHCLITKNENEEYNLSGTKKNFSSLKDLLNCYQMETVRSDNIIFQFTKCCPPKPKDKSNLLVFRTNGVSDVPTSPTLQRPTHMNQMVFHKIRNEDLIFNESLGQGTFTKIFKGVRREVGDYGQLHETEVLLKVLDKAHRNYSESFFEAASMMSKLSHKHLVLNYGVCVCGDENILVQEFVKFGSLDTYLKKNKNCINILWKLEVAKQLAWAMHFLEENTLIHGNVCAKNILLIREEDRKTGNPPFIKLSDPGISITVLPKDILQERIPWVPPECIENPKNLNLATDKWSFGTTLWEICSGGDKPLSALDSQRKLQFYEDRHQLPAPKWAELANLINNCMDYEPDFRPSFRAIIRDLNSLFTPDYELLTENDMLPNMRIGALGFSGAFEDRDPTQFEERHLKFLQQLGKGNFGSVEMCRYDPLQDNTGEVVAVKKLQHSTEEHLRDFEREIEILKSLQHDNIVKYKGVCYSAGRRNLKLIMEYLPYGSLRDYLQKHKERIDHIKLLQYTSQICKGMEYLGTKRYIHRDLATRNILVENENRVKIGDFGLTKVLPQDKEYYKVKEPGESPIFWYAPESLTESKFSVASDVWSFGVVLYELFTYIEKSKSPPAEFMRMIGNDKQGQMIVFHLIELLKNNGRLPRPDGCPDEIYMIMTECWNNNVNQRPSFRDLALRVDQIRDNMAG
Experimental: as §6, §7
(specific activity approx. 500 cpm/pmol, concentration as required).
as §8

SMILES	half-life at 5 μM [1] [min]	CLint scaled at 5 μM [1] [mL/min/kg]	half-life at 5 μM [2] [min]	CLint scaled at 5 μM [2] [mL/min/kg]	Cl/F [3] [mL/min/kg]	AUC(0-t) [3] [ng·h/mL]	half-life [3] [min]	Vd [3] [L/kg]	IC50 (JAK1 (h)) [nM]	IC50 (JAK2 (h)) [nM]
Cc1c2ccc(Nc3nccc(N(C)C4CCC5(CC4)CCN(C(=O)CC#N)C5)n3)cc2nn1C (stereo not drawn) [Ex. 2, 3-(8-((2-((2,3-dimethyl-2H-indazol-6-yl)amino)pyrimidin-4-yl)(methyl)amino)-2-azaspiro[4.5]decan-2-yl)-3-oxopropanenitrile]	22.2	112	20.3	85.5	49.8	332	109	3.59	–	–
Cc1c2ccc(Nc3ncc(Cl)c(NC4CCC5(CC4)CCN(C(=O)CC#N)CC5)n3)cc2nn1C [Ex. 6, 3-(9-((5-chloro-2-((2,3-dimethyl-2H-indazol-6-yl)amino)pyrimidin-4-yl)amino)-3-azaspiro[5.5]undecan-3-yl)-3-oxopropanenitrile]	41	60.6	79.8	21.8	22.3	743	78.6	2.55	0.6	2
Cc1cnc(Nc2ccc3c(C)n(C)nc3c2)nc1NC1CC2CN(C(=O)CC#N)CC2C1 (stereo not drawn) [Ex. 9, 3-(5-((2-((2,3-dimethyl-2H-indazol-6-yl)amino)-5-methylpyrimidin-4-yl)amino)hexahydrocyclopenta[c]pyrrol-2(1H)-yl)-3-oxopropanenitrile]	52.7	47.1	31.2	55.7	–	–	–	–	2	–
Cc1cnc(Nc2ccc3c(C)n(C)nc3c2)nc1NC1CC2CN(S(C)(=O)=O)CC2C1 (stereo not drawn) [Ex. 10, N^2-(2,3-dimethyl-2H-indazol-6-yl)-5-methyl-N^4-(2-(methylsulfonyl)octahydrocyclopenta[c]pyrrol-5-yl)pyrimidine-2,4-diamine]	50.7	49	20	87	33.2	501	43.8	1.75	7	–
CC(=O)N1CC2CC(Nc3nc(Nc4ccc5c(C)n(C)nc5c4)ncc3C)CC2C1 (stereo not drawn) [Ex. 11, 1-(5-((2-((2,3-dimethyl-2H-indazol-6-yl)amino)-5-methylpyrimidin-4-yl)amino)hexahydrocyclopenta[c]pyrrol-2(1H)-yl)ethanone]	–	–	–	–	–	–	–	–	57	–
Cc1cnc(Nc2ccc3c(C)n(C)nc3c2)nc1NC1CCC2(CC1)CCN(C(=O)CC#N)CC2 [Ex. 12, 3-(9-((2-((2,3-dimethyl-2H-indazol-6-yl)amino)-5-methylpyrimidin-4-yl)amino)-3-azaspiro[5.5]undecan-3-yl)-3-oxopropanenitrile]	57.8	43	166	10.4	114	144	54	5.71	1	–
CC(=O)N1CCC2(CCC(Nc3nc(Nc4ccc5c(C)n(C)nc5c4)ncc3C)CC2)CC1 [Ex. 13, 1-(9-((2-((2,3-dimethyl-2H-indazol-6-yl)amino)-5-methylpyrimidin-4-yl)amino)-3-azaspiro[5.5]undecan-3-yl)ethanone]	27.9	89.2	51.7	33.6	75.5	238	38.4	3.5	2	–
